For 54 compounds, IC50 results are on record in patent publication US6784201B2, “Benzothiepines having activity as inhibitors of ileal bile acid transport and taurocholate uptake” (G.D. Searle & Company, priority 1994, dated 2004).

In this experiment the target is T1, human IBAT (Homo sapiens, UniProt Q12908).
T1 construct: expressed in transfected cells; host or cells: Baby hamster kidney (BHK) cells, clone H14
T1 sequence (Q12908 1-348): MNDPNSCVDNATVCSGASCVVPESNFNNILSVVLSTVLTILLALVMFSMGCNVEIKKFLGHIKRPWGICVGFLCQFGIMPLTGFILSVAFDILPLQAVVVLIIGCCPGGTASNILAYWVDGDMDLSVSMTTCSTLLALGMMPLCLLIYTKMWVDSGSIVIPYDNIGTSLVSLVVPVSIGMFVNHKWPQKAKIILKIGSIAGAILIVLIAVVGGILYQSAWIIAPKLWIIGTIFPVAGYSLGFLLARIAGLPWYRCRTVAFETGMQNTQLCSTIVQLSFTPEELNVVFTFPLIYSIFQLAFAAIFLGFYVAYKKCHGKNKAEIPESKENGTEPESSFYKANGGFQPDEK
The experiment in a line: In vitro assay of IBAT-mediated uptake of [14C]-taurocholate (TC) in H14 cells. The class given is cell-based. The conditions noted are these: read-out: Human TC IC50. In outline: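 BHK cells stably expressing human IBAT (H14) were incubated 2 h at 37° C with compound and 3 μM final [14C]-taurocholate in DMEM (4.5 g/L glucose) plus 0.2% fatty acid-free BSA. After cold PBS washes, cell-associated radioactivity was measured by scintillation counting.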

What is called IC50 is the point on the concentration scale where inhibition reaches its midpoint.

As for `CCCCC1(CCCC)CS(=O)(=O)c2ccc(N(C)C)cc2C(c2ccc(OCCCCOCCCC[N+](CC)(CC)CC)c(F)c2)C1O` (stereo not drawn) [Example 1040], the IC50 came to 3 nM.
The figure for `CCCCC1(CCCC)CS(=O)(=O)c2ccc(N(C)C)cc2C(c2cccc(OCCOCCOCC[n+]3ccnc4ccccc43)c2)C1O` (stereo not drawn) [Example 1041] is 3 nM; for `C=CC(=O)Nc1cccc(C2c3cc(N(C)C)ccc3S(=O)(=O)CC(CCCC)(CCCC)C2O)c1` (stereo not drawn) [Example 1043] it is 3 nM.
The figure for `CCCCC1(CCCC)CS(=O)(=O)c2ccc(N(C)C)cc2C(c2ccc(OCCOCC[N+](CC)(CC)CC)c(F)c2)C1O` (stereo not drawn) [Example 1044] is 3 nM; for `CCCCC1(CCCC)CS(=O)(=O)c2ccc(N(C)C)cc2C(c2ccc(OCCCCCCCC[N+](CC)(CC)CC)c(F)c2)C1O` (stereo not drawn) [Example 1045] it is 3 nM; for `CCCCC1(CCCC)CS(=O)(=O)c2ccc(N(C)C)cc2C(c2cccc(N)c2)C1O` (stereo not drawn) [Example 1046] it is 3 nM.
For the compound `CCCCC1(CCCC)CS(=O)(=O)c2ccc(N(C)C)cc2C(c2ccc(OCCOCCOCC[N+](CC)(CC)CC)cc2)C1O` (stereo not drawn) [Example 1048], the IC50 came out at 3 nM.
The value for `CCCCC1(CCCC)CS(=O)(=O)c2ccc(N(C)C)cc2C(c2ccc(OCCOCC[n+]3ccccc3)c(F)c2)C1O` (stereo not drawn) [Example 1049] was 3 nM.
The value for `CCCCC1(CCCC)CS(=O)(=O)c2ccc(N(C)C)cc2C(c2cccc(OCCOCCOCC[N+]3(C)CCN(P(C)(=O)c4ccccc4)CC3)c2)C1O` (stereo not drawn) [Example 1050] was 3 nM; that for `CCCCC1(CCCC)CS(=O)(=O)c2ccc(N(C)C)cc2C(c2ccc(OCc3cc[n+](C)cc3)c(F)c2)C1O` (stereo not drawn) [Example 1051] was 3 nM.
For the compound `CCCCC1(CCCC)CS(=O)(=O)c2ccc(N(C)C)cc2C(c2cccc(OCCOCCOCC[n+]3cc4ccccc4cc3C)c2)C1O` (stereo not drawn) [Example 1052], the half-maximal inhibitory concentration (IC50) stood at 3 nM.
The figure for `CCCCC1(CCCC)CS(=O)(=O)c2ccc(N(C)C)cc2C(c2ccc(OCCC[n+]3ccc(N(C)C)cc3)c(F)c2)C1O` (stereo not drawn) [Example 1053] is 3 nM; for `CCCCC1(CCCC)CS(=O)(=O)c2ccc(N(C)C)cc2C(c2cccc(OCCOCCOCC[n+]3ccc4ccccc4c3)c2)C1O` (stereo not drawn) [Example 1054] it is 3 nM.
The figure for `CCCCC1(CCCC)CS(=O)(=O)c2ccc(N(C)C)cc2C(c2ccc(OCCOCCOCC[N+]3(C)CCCN(C)CCN(C)CCCN(C)CC3)cc2)C1O` (stereo not drawn) [Example 1055] is 3 nM; for `CCCCC1(CCCC)CS(=O)(=O)c2ccc(N(C)C)cc2C(c2cccc(OCCOCCOCC[n+]3ccc4c(c3)CCCCC4)c2)C1O` (stereo not drawn) [Example 1056] it is 3 nM; for `CCCCC1(CCCC)CS(=O)(=O)c2ccc(N(C)C)cc2C(c2cccc(OCCOCCOCC[n+]3ccncc3)c2)C1O` (stereo not drawn) [Example 1057] it is 3 nM.
The figure for `CCCCC1(CCCC)CS(=O)(=O)c2ccc(N(C)C)cc2C(c2cccc(OCCOCCOCC[N+](CC)(CC)CCN(C)C(=O)c3ccccc3)c2)C1O` (stereo not drawn) [Example 1058] is 3 nM; for `CCCCC1(CCCC)CS(=O)(=O)c2ccc(N(C)C)cc2C(c2ccc(OCCOCC[N+]3(CC)CCCCC3)c(F)c2)C1O` (stereo not drawn) [Example 1059] it is 3 nM.
Turning to `CCCCC1(CC)CS(=O)(=O)c2ccc(NC)cc2C(c2ccc(OC)c(F)c2)C1O` (stereo not drawn) [Example 1060], the half-inhibitory concentration (IC50) amounted to 3.6 nM.
The figure for `CCCCC1(CCCC)CS(=O)(=O)c2ccc(NC)cc2C(c2cccc(OCCOCCOCC[n+]3cc4ccccc4cn3)c2)C1O` (stereo not drawn) [Example 1061] is 4 nM.
The figure for `CCCCC1(CCCC)CS(=O)(=O)c2ccc(NC)cc2C(c2cccc(OCCOCCOCC[N+](C)(C)CCN(C)S(=O)(=O)c3ccccc3)c2)C1O` (stereo not drawn) [Example 1062] is 4 nM.
The figure for `C=COCC[N+](CC)(CC)CCOCCOCCOc1cccc(C2c3cc(NC)ccc3S(=O)(=O)CC(CCCC)(CCCC)C2O)c1` (stereo not drawn) [Example 1063] is 4 nM; for `CCCCC1(CCCC)CS(=O)(=O)c2ccc(NC)cc2C(c2cccc(OCCOCCOCC[n+]3ccccc3CCN3CCCCC3)c2)C1O` (stereo not drawn) [Example 1064] it is 4 nM; for `CCCCC1(CCCC)CS(=O)(=O)c2ccc(N(C)C)cc2C(c2cccc(OCCOCCOCC[N+](CCOCCOC)(CCOCCOC)CCOCCOC)c2)C1O` (stereo not drawn) [Example 1065] it is 4 nM.
On to `CCCCC1(CCCC)CS(=O)(=O)c2ccc(N(C)C)cc2C(c2cccc(OCCOCCOCC[n+]3cc4ccccc4c4ccccc43)c2)C1O` (stereo not drawn) [Example 1066], for which the IC50 turned out to be 4 nM.
The value for `CCCCC1(CCCC)CS(=O)(=O)c2ccc(N(C)C)cc2C(c2cccc(OCCOCCOCC[n+]3ccccc3)c2)C1O` (stereo not drawn) [Example 1068] was 4 nM.
For the compound `CCCCC1(CCCC)CS(=O)(=O)c2c(cc(N(C)C)cc2N(C)C)C(c2ccccc2)C1O` (stereo not drawn) [Example 1069], the half-maximal inhibitory concentration (IC50) came out at 4 nM.
The value for `CCCCC1(CCCC)CS(=O)(=O)c2ccc(N(C)C)cc2C(c2ccc(OCCOCC[n+]3ccn(CC)c3)c(F)c2)C1O` (stereo not drawn) [Example 1070] was 4 nM; that for `CCCCC1(CCCC)CS(=O)(=O)c2ccc(N(C)C)cc2C(c2cccc(OCCOCCOCC[N+](CC)(CC)CCN(C)P(C)(=O)c3ccccc3)c2)C1O` (stereo not drawn) [Example 1071] was 4 nM; that for `CCCCC1(CCCC)CS(=O)(=O)c2ccc(N(C)C)cc2C(c2cccc(OCCOCCOCC[n+]3ccc(CO)cc3)c2)C1O` (stereo not drawn) [Example 1072] was 4 nM.
On to `CCCCC1(CCCC)CS(=O)(=O)c2ccc(N(C)C)cc2C(c2ccc(OCCOCC[N+]34CCN(CC3)CC4)c(F)c2)C1O` (stereo not drawn) [Example 1073], for which the concentration for half-maximal inhibition (IC50) turned out to be 4 nM.
The figure for `CCCCC1(CC)CS(=O)(=O)c2ccc(N(C)C)cc2C(c2ccc(OC)c(F)c2)C1O` (stereo not drawn) [Example 1074] is 4 nM; for `CCCCC1(CCCC)CS(=O)(=O)c2c(cc(N(C)C)cc2N(C)C)C(c2ccc(F)cc2)C1O` (stereo not drawn) [Example 1075] it is 4.3 nM.
On to `CCCCC1(CCCC)CS(=O)(=O)c2ccc(N(C)C)cc2C(c2ccc(OCCOCCOCC[N+](C)(C)C)cc2)C1O` (stereo not drawn) [Example 1076], for which the IC50 stood at 4.5 nM.
The figure for `CCCCC1(CCCC)CS(=O)(=O)c2ccc(N(C)C)cc2C(c2cccc(CO)c2)C1O` (stereo not drawn) [Example 1077] is 4.5 nM.
As for `CCCCC1(CC)CS(=O)(=O)c2ccc(N(C)C)cc2C(c2cccc(OCCOCCOCC[N+](C)(C)CCCCCC[N+](C)(C)CCOCCOCCOc3cccc(C4c5cc(N(C)C)ccc5S(=O)(=O)CC(CC)(CCCC)C4O)c3)c2)C1O` (stereo not drawn) [Example 1079], the IC50 is 5 nM.
With `CCCCC1(CCCC)CS(=O)(=O)c2ccc(N(C)C)cc2C(c2cccc(OCCOCCOCC[N+](CC)(CC)CCN(C)S(=O)(=O)c3ccccc3)c2)C1O` (stereo not drawn) [Example 1080], the IC50 amounted to 5 nM.
The figure for `CCCCC1(CCCC)CS(=O)(=O)c2ccc(N(C)C)cc2C(c2cccc(OCCOCCOCC[N+](CC)(CC)CC(C)=O)c2)C1O` (stereo not drawn) [Example 1081] is 5 nM; for `CCCCC1(CCCC)CS(=O)(=O)c2ccc(N(C)C)cc2C(c2ccccn2)C1O` (stereo not drawn) [Example 1082] it is 5 nM; for `CCCCC1(CCCC)CS(=O)(=O)c2ccc(N(C)C)cc2C(c2cccc(OCCOCCOCC[n+]3ccccc3C)c2)C1O` (stereo not drawn) [Example 1083] it is 5 nM.
In the case of `CCCCC1(CCCC)CS(=O)(=O)c2ccc(N(C)C)cc2C(c2cccc(OCCOCCOCC[n+]3ccc(CC)cc3)c2)C1O` (stereo not drawn) [Example 1084], the half-inhibitory concentration (IC50) is 5 nM.
The figure for `CCCCC1(CCCC)CS(=O)(=O)c2ccc(N(C)C)cc2C(c2ccsc2)C1O` (stereo not drawn) [Example 1085] is 5 nM; for `CCCCC1(CCCC)CS(=O)(=O)c2ccc(N(C)C)cc2C(c2cccc(OCCOCCOCC[N+](C)(C)CCN(CC)C(=O)c3ccccc3)c2)C1O` (stereo not drawn) [Example 1086] it is 5 nM; for `CCCCC1(CCCC)CS(=O)(=O)c2ccc(N(C)C)cc2C(c2cccc(OCC[N+](CC)(CC)CC)c2)C1O` (stereo not drawn) [Example 1087] it is 5 nM.
The figure for `CCCCC1(CC)CS(=O)(=O)c2ccc(N(C)C)cc2C(c2ccc3c(c2)OCO3)C1O` (stereo not drawn) [Example 1088] is 5.5 nM; for `CCCCC1(CC)CS(=O)(=O)c2ccc(N(C)C)cc2C(c2ccc(OC)cc2)C1O` (stereo not drawn) [Example 1089] it is 5.7 nM; for `CCCCC1(CCCC)CS(=O)(=O)c2ccc(N(C)C)cc2C(c2cccc(OCCOCCOCC[n+]3cccc4ccccc43)c2)C1O` (stereo not drawn) [Example 1090] it is 6 nM.
The figure for `CCCCC1(CCCC)CS(=O)(=O)c2ccc(N(C)C)cc2C(c2cccc(OCCOCCOCC[N+](C)(C3CCCCC3)C3CCCCC3)c2)C1O` (stereo not drawn) [Example 1091] is 6 nM; for `CCCCC1(CCCC)CS(=O)(=O)c2ccc(N(C)C)cc2C(c2cccc(OCCOCCOCC[N+](C)(C)c3ccccc3)c2)C1O` (stereo not drawn) [Example 1092] it is 6 nM.
For `CCCCC1(CCCC)CS(=O)(=O)c2ccc(N(C)C)cc2C(c2cccc(OCCOCCOCC[N+](C)(C)CC(=O)OCC)c2)C1O` (stereo not drawn) [Example 1093], the IC50 was found to be 6 nM.
Take `CCCCC1(CCCC)CS(=O)(=O)c2ccc(N(C)C)cc2C(c2cccc(OCCOCCOCC[n+]3cccc(C(=O)OC)c3)c2)C1O` (stereo not drawn) [Example 1094]: the IC50 came to 6 nM.
The figure for `CCCCC1(CCCC)CS(=O)(=O)c2ccc(N(C)C)cc2C(c2cccc(OCCOCCOCC[N+]34CCN(CC3)CC4)c2)C1O` (stereo not drawn) [Example 1095] is 6 nM; for `CCCCC1(CCCC)CS(=O)(=O)c2ccc(N(C)C)cc2C(c2cccc(OCCOCCOCC[n+]3ccc(C)cc3)c2)C1O` (stereo not drawn) [Example 1096] it is 6 nM.
The value for `CCCCC1(CCCC)CS(=O)(=O)c2ccc(N(C)C)cc2C(c2cccc(NC(=O)CCBr)c2)C1O` (stereo not drawn) [Example 1097] was 6 nM.
